Measured values published in article PMC4229968, “The Inhibition of the Components from Shengmai Injection towards UDP-Glucuronosyltransferase” (Evidence-based Complementary and Alternative Medicine : eCAM, 2014).

Key:
Format in all cases: in vitro ADME
UGT1A3 = target: T1, UGT1A3 (Homo sapiens, UniProt P35503); assay: Recombinant UGT1A3-catalyzed 4-MU glucuronidation inhibition; settings: pH 7.4, probe 4-methylumbelliferone (4-MU), UGT1A3, 100 μM of compound, 4-MU substrate, read-out: residual activity
T1 construct: purchased BD Gentest Corp. (Woburn, MA, USA); host or cells: baculovirus-infected insect cells
T1 sequence (P35503 29-534): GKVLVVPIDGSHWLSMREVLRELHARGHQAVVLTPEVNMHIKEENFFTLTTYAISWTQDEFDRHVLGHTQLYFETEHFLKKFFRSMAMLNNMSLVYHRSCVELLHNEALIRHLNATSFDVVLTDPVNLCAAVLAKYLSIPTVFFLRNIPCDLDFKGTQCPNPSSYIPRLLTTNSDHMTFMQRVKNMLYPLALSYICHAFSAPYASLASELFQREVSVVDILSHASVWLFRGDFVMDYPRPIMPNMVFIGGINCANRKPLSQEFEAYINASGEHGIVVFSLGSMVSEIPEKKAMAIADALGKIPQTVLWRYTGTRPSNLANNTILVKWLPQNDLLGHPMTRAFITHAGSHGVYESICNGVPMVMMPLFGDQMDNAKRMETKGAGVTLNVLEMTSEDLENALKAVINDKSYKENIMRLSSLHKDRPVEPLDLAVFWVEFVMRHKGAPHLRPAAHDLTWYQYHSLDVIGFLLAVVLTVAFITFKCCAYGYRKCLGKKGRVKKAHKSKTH
Excerpt: (§1) 4-Methylumbelliferone (4-MU), 4-methylumbelliferone-β-D-glucuronide (4-MUG), Tris-HCl, 7-hydroxycoumarin, and uridine-5′-diphosphoglucuronic acid (UDPGA) (trisodium salt) were purchased from Sigma-Aldrich (St. Louis, MO). Recombinant human UGT isoforms (UGT1A1, UGT1A3, UGT1A4, UGT1A6, UGT1A7, UGT1A8, UGT1A9, UGT1A10, UGT2B4, UGT2B7, and UGT2B15) expressed in baculovirus-infected insect cells were obtained from BD Gentest Corp. (Woburn, MA, USA). Ophiopogonin D (OD), ophiopogonin D′ (OD′), methylophiopogonanone A (MA), methylophiopogonanone B (MB), and ruscorectal (RU) were purchased from Sichuan Weikeqi Biotechnology Company (Chengdu, Sichuan, China). The purity of these compounds was above 95%. All other reagents were of HPLC grade or of the highest grade commercially available.
(§2) 4-MU, the nonspecific probe substrate for all the UGT isoforms except UGT1A4, was used in the present study to initially screen the inhibition potential of maidong's components towards UGT isoforms as previously reported. In brief, the incubation system (total volume = 200 μL) consisted of recombinant UGTs, 5 mM UDPGA, 5 mM MgCl2, 50 mM Tris-HCl (pH = 7.4), and 4-MU in the absence or presence of different concentrations of maidong's components. The compounds were dissolved in DMSO, and the final concentration of DMSO was below 0.5% (v/v). The used incubation time and protein concentration were previously determined to ensure the reaction rate within the linear range. The 4-MU concentration was equal to known K m or S 50 values for each UGT isoform. After 5 min preincubation at 37°C, the incubation reaction was initiated via adding UDPGA to the mixture system. The reactions were quenched by adding 100 μL acetonitrile with 7-hydroxycoumarin (100 μM) as internal standard. Centrifuged at 20000 ×g for 10 min, an aliquot of supernatant was transferred to an autoinjector vial for HPLC analysis. The HPLC system (Shimadzu, Kyoto, Japan) contained a SCL-10A system controller, two LC-10AT pumps, a SIL-10A autoinjector, and a SPD-10AVP UV detector. Chromatographic separation was carried out using a C18 column (4.6 × 200 mm, 5 μm, Kromasil) at a flow rate of 1 mL/min and UV detector at 316 nm. The mobile phase consisted of acetonitrile (A) and H2O containing 0.5% (v/v) formic acid (B). The following gradient condition was used: 0–15 min, 95–40% B; 15–20 min, 10% B; 20–30 min, 95% B.

UGT2B4 = target: T2, UGT2B4 (Homo sapiens, UniProt P06133); assay: Recombinant UGT2B4-catalyzed 4-MU glucuronidation inhibition; settings: pH 7.4, probe 4-methylumbelliferone (4-MU), UGT2B4, 100 μM of compound, 4-MU substrate, read-out: residual activity
T2 construct: purchased BD Gentest Corp. (Woburn, MA, USA); host or cells: baculovirus-infected insect cells
T2 sequence (P06133 24-528): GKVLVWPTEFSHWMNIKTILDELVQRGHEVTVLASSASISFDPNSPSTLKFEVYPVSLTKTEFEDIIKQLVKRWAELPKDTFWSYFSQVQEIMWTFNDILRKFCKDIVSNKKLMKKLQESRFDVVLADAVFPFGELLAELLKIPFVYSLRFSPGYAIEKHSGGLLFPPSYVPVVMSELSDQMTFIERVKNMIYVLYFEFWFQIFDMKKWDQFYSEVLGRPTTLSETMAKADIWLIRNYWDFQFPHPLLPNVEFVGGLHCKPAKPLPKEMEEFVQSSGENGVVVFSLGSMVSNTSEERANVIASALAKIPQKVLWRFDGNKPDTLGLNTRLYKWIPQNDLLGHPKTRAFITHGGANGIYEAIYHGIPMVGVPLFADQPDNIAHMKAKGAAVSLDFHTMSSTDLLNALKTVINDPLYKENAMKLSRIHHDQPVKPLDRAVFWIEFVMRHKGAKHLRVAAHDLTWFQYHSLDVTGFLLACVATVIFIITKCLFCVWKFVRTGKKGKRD
Excerpt: as §1, §2

UGT2B15 = target: T3, UGT2B15 (Homo sapiens, UniProt P54855); assay: Recombinant UGT2B15-catalyzed 4-MU glucuronidation inhibition; settings: pH 7.4, probe 4-methylumbelliferone (4-MU), UGT2B15, 100 μM of compound, 4-MU substrate, read-out: residual activity
T3 construct: purchased BD Gentest Corp. (Woburn, MA, USA); host or cells: baculovirus-infected insect cells
T3 sequence (P54855 24-530): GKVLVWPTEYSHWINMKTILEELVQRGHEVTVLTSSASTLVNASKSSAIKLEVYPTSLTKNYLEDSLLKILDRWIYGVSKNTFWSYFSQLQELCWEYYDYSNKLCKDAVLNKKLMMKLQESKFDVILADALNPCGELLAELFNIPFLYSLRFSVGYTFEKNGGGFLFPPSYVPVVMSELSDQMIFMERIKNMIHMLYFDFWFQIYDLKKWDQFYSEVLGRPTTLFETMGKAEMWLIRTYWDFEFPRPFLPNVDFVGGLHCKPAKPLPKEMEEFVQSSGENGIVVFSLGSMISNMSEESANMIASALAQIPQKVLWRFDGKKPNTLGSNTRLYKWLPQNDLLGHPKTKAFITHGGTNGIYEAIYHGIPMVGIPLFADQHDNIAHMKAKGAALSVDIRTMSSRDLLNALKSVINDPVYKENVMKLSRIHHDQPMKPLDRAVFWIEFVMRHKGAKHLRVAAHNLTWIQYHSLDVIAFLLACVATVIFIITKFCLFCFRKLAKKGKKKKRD
Excerpt: as §1, §2

SMILES | activity at 100 µM (UGT1A3) | activity at 100 µM (UGT2B4) | activity at 100 µM (UGT2B15)
COc1ccc(C[C@@H]2COc3c(C)c(O)c(C)c(O)c3C2=O)cc1 [MB, methylophiopogonanone B] | 84.2 ± 22.8% | 73.2 ± 1.2% | 56.1 ± 9.8%
CC1CCC2(OC1)OC1CC3C4CC=C5CC(O)CC(O)C5(C)C4CCC3(C)C1C2C (stereo not drawn) [RU, ruscorectal] | 37.2 ± 18.2% | 88.4 ± 1.6% | 55.5 ± 19.6%
C[C@@H]1CC[C@@]2(OC1)O[C@H]1C[C@H]3[C@@H]4CC=C5C[C@@H](O[C@@H]6O[C@H](CO)[C@@H](O)[C@H](O[C@@H]7OC[C@@H](O)[C@H](O)[C@H]7O)[C@H]6O[C@@H]6O[C@@H](C)[C@H](O)[C@@H](O)[C@H]6O)CC[C@]5(C)[C@H]4CC[C@]3(C)[C@H]1[C@@H]2C [OD′, ophiopogonin D′] | 36.5 ± 2.5% | 118 ± 21.8% | 35.5 ± 1.7%
C[C@@H]1CC[C@@]2(OC1)O[C@H]1C[C@H]3[C@@H]4CC=C5C[C@@H](O)C[C@@H](O[C@@H]6O[C@H](C)[C@H](O)[C@H](O[C@@H]7OC[C@@H](O)[C@H](O)[C@H]7O)[C@H]6O[C@@H]6O[C@@H](C)[C@H](O)[C@@H](O)[C@H]6O)[C@]5(C)[C@H]4CC[C@]3(C)[C@H]1[C@@H]2C [OD, ophiopogonin D] | 40.7 ± 0.3% | 102 ± 2.6% | 36.9%
Cc1c(O)c(C)c2c(c1O)C(=O)[C@H](Cc1ccc3c(c1)OCO3)CO2 [MA, methylophiopogonanone A] | 35.5 ± 6.1% | 71.1 ± 1.5% | 23.8 ± 2.8%
